In patent US9499495B2, “Quinazolines and azaquinazolines as dual inhibitors of RAS/RAF/MEK/ERK and PI3K/AKT/PTEN/mTOR pathways” (Asana Biosciences, LLC, priority 2013, dated 2016):

Key:
[1] = target: T1, B-RAFV600E (Homo sapiens, UniProt P15056, V600E); assay: B-RAFV600E radiometric assay; type: biochemical; conditions: read-out: Kinase assay B-Raf
T1 construct: purchased Millipore, USA 14-557
Outline: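 B-RAFV600E was preincubated 45 min at rt with compound in 1% DMSO. MEK-K97M (0.5 μg), 5 μM final cold ATP and [γ-32P]ATP were then added for 2 h at rt. Phosphorylated MEK was captured on P81 paper and scintillation-counted; IC50 came from a sigmoidal dose-response fit.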

[2] = target: T2, PI3Kα (Homo sapiens, UniProt P42336); assay: PI3 Kinase alpha TR-FRET assay; type: biochemical
T2 construct: made in house; host or cells: SF9 cells
Outline: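 Purified Sf9-expressed p110/p85α (5 ng) was pre-incubated with compound and PIP2 at rt, then ATP was added (PIP2 and ATP both 40 μM) for a 30 min reaction. PIP3 was detected by TR-FRET displacement of biotin-PIP3, and IC50 was taken from dose-response curves of the 665/615 nm emission ratio.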

[3] = test system: A375 cells; assay: XTT assay for cell viability, A375 cells; type: cell-based; conditions: Homo sapiens, A-375, 72 h
Outline: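 GI50 derived by sigmoidal dose-response fitting of proliferation normalised to DMSO control (100%). Readout: A450 after 2-3 h with XTT (1 mg/ml)/PMS (25 μM), following 72 h compound treatment at 37° C., 5% CO2 of cells plated at 1000-2000 per well the previous day.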

T1 sequence (P15056 416-766 V600E limits assumed): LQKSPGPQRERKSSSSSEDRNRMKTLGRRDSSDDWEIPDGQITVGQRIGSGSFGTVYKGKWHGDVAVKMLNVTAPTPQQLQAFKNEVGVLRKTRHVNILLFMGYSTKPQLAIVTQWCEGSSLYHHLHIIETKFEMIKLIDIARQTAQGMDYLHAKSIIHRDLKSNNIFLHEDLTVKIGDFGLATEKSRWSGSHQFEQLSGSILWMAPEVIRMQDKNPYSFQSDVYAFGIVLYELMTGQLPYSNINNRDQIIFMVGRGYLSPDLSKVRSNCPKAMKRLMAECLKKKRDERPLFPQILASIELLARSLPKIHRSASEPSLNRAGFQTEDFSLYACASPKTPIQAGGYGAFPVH
T2 sequence (P42336 whole entry, species assumed): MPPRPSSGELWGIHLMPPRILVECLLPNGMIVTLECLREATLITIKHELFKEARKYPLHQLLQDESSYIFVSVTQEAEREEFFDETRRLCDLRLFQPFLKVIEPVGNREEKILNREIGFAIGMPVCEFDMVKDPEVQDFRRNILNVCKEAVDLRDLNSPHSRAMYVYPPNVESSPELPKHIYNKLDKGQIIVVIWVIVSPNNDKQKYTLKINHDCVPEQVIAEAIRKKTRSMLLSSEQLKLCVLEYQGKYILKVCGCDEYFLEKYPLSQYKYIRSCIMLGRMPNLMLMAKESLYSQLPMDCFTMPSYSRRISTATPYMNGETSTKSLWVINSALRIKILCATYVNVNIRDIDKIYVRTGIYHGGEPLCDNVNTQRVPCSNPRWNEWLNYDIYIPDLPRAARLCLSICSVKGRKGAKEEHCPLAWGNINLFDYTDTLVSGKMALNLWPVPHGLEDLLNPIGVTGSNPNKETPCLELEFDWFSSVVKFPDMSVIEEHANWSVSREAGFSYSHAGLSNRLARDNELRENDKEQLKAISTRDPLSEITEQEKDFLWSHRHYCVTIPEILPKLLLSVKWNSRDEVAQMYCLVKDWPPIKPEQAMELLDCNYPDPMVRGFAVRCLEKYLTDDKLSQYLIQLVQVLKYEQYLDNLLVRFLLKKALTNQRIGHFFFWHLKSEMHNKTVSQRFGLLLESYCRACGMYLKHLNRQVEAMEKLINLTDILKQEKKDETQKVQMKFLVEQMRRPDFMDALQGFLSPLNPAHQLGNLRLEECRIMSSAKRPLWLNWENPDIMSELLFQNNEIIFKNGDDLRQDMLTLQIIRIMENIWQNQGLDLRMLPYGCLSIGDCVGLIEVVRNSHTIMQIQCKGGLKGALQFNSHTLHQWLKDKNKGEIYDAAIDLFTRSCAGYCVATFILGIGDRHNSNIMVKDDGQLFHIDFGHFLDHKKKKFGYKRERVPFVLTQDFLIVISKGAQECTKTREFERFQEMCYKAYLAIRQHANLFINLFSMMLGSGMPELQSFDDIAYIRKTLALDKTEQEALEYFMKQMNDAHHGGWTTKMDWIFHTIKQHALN
T2 sequence (P27986 whole entry partner, species assumed): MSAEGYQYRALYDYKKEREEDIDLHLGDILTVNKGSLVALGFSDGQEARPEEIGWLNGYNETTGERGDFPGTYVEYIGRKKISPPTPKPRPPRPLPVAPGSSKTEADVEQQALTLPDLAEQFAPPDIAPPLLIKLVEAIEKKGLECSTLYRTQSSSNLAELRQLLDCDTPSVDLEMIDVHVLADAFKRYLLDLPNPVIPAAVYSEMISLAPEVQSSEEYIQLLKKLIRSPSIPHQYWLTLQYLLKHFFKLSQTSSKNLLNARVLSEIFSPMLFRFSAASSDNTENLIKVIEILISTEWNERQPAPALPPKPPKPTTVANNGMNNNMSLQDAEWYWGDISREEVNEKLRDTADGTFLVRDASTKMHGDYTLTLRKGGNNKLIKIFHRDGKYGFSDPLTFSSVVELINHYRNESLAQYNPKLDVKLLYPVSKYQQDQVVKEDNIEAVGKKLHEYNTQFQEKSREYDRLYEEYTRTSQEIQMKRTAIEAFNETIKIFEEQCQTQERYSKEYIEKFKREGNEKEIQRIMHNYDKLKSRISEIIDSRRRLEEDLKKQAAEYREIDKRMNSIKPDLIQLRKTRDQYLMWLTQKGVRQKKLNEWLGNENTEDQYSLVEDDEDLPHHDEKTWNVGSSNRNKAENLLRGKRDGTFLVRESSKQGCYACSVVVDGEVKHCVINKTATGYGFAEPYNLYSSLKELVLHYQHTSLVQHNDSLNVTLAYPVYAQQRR

CCCS(=O)(=O)Nc1cccc(-c2ccc3nc(-c4cnc(N)nc4)nc(N4CCOCC4)c3n2)c1F [Example 7, N-(3-(2-(2-aminopyrimidin-5-yl)-4-morpholinopyrido[3,2-d]pyrimidin-6-yl)-2-fluorophenyl)propane-1-sulfonamide]
IC50 [1]: 100 to 1000 nM | IC50 [2]: 1 to 100 nM | IC50 [3]: 100 to 1000 nM

COc1cc2nc(-c3cnc(N)nc3)nc(N3CCOCC3)c2cc1-c1cccc(NS(=O)(=O)CCCF)c1F [Example 11, N-(3-(2-(2-aminopyrimidin-5-yl)-7-methoxy-4-morpholinoquinazolin-6-yl)-2-fluorophenyl)-3-fluoropropane-1-sulfonamide]
IC50 [1]: 1 to 100 nM | IC50 [2]: 100 to 1000 nM | IC50 [3]: 100 to 1000 nM

CNC(=O)Nc1ccc(-c2nc(N3CCOCC3)c3cc(-c4cccc(NS(=O)(=O)CCCF)c4F)cc(OC)c3n2)cn1 [Example 39, 3-fluoro-N-(2-fluoro-3-(8-methoxy-2-(6-(3-methylureido)pyridin-3-yl)-4-morpholinoquinazolin-6-yl)phenyl)propane-1-sulfonamide]
IC50 [1]: 1 to 100 nM | IC50 [2]: 100 to 1000 nM | IC50 [3]: 1 to 100 nM

COc1cc(-c2cccc(NS(=O)(=O)CCCF)c2F)cc2c(N3CCOC[C@H]3C)nc(-c3cnc(N)nc3)nc12 [Example 43, (R)-N-(3-(2-(2-aminopyrimidin-5-yl)-8-methoxy-4-(3-methylmorpholino)quinazolin-6-yl)-2-fluorophenyl)-3-fluoropropane-1-sulfonamide]
IC50 [1]: 1 to 100 nM | IC50 [2]: 100 to 1000 nM | IC50 [3]: 1 to 100 nM

Nc1ncc(-c2nc(N3CCOCC3)c3cc(-c4cccc(NS(=O)(=O)CCCF)c4F)cc(N4CCOCC4)c3n2)cn1 [Example 69, N-(3-(2-(2-aminopyrimidin-5-yl)-4,8-dimorpholinoquinazolin-6-yl)-2-fluorophenyl)-3-fluoropropane-1-sulfonamide]
IC50 [1]: 1 to 100 nM | IC50 [2]: 100 to 1000 nM | IC50 [3]: 1 to 100 nM

COc1cc(-c2c(F)ccc(NS(=O)(=O)CCCF)c2F)cc2c(N3CCOCC3)nc(-c3ccc(N)nc3)nc12 [Example 79, N-(3-(2-(6-aminopyridin-3-yl)-8-methoxy-4-morpholinoquinazolin-6-yl)-2,4-difluorophenyl)-3-fluoropropane-1-sulfonamide]
IC50 [1]: 1 to 100 nM | IC50 [2]: 100 to 1000 nM | IC50 [3]: 1 to 100 nM

CCCS(=O)(=O)Nc1cccc(-c2ccc3nc(-c4ccc(N)nc4)nc(N4CCOCC4)c3n2)c1F [Example 86, N-(3-(2-(6-aminopyridin-3-yl)-4-morpholinopyrido[3,2-d]pyrimidin-6-yl)-2-fluorophenyl)propane-1-sulfonamide]
IC50 [1]: 100 to 1000 nM | IC50 [2]: 1 to 100 nM | IC50 [3]: 100 to 1000 nM

Nc1ncc(-c2nc(N3CCOCC3)c3nc(-c4cccc(NS(=O)(=O)CCCF)c4F)ccc3n2)cn1 [Example 87, N-(3-(2-(2-aminopyrimidin-5-yl)-4-morpholinopyrido[3,2-d]pyrimidin-6-yl)-2-fluorophenyl)-3-fluoropropane-1-sulfonamide]
IC50 [1]: 1 to 100 nM | IC50 [2]: 1 to 100 nM | IC50 [3]: 100 to 1000 nM

Nc1ccc(-c2nc(N3CCOCC3)c3nc(-c4cccc(NS(=O)(=O)CCCF)c4F)ccc3n2)cn1 [Example 88, N-(3-(2-(6-aminopyridin-3-yl)-4-morpholinopyrido[3,2-d]pyrimidin-6-yl)-2-fluorophenyl)-3-fluoropropane-1-sulfonamide]
IC50 [1]: 1 to 100 nM | IC50 [2]: 1 to 100 nM | IC50 [3]: 100 to 1000 nM

Cc1cc(-c2nc(N3CCOCC3)c3nc(-c4cccc(NS(=O)(=O)CCCF)c4F)ccc3n2)cnc1N [Example 90, N-(3-(2-(6-amino-5-methylpyridin-3-yl)-4-morpholinopyrido[3,2-d]pyrimidin-6-yl)-2-fluorophenyl)-3-fluoropropane-1-sulfonamide]
IC50 [1]: 1 to 100 nM | IC50 [2]: 100 to 1000 nM | IC50 [3]: 100 to 1000 nM

Nc1ccc(-c2nc(N3CCOCC3)c3nc(-c4cccc(NS(=O)(=O)c5cc(F)ccc5F)c4F)ccc3n2)cn1 [Example 92, N-(3-(2-(6-aminopyridin-3-yl)-4-morpholinopyrido[3,2-d]pyrimidin-6-yl)-2-fluorophenyl)-2,5-difluorobenzenesulfonamide]
IC50 [1]: 1 to 100 nM | IC50 [2]: 1 to 100 nM | IC50 [3]: 1 to 100 nM
